Where two headings read alike, the source gives them in different places.
Experiments:
[1] = test system: B16F10 mouse melanoma; assay: Biodistribution of 177Lu-labeled αMSH analogues in mice bearing B16F10 mouse melanoma; format: in vivo, C57BL/6J mice; conditions: C57BL/6J mice, B16F10 melanoma
Protocol: (§1) The B16-F10 mouse melanoma cells were cultured and inoculated in mice as described in Example 1.
(§2) For biodistribution studies, approximately 1-2 MBq of ^177Lu-labeled αMSH analogues via tail vein under anesthesia. At 1, 4, 24, and 120 h p.i., the mice were euthanized by CO2 inhalation. Organs/tissues were harvested and the radioactivity was measured as described in Example 1.

[2] = as above; format: in vivo, C57BL/6J mice; conditions: mouse, iv, total radioactivity, C57BL/6J mice, B16F10 melanoma
Protocol: as §1, §2

## CCCC[C@H](NC(=O)CN1CCC(NC(=O)[C@H](CCCCNC(=O)CN2CCN(CC(=O)O)CCN(CC(=O)O)CCN(CC(=O)O)CC2)NC(=O)[C@H](CCC(=O)O)NC(=O)CCCc2ccc(I)cc2)CC1)C(=O)N[C@H]1CC(=O)NCCCC[C@@H](C(N)=O)NC(=O)[C@H](Cc2c[nH]c3ccccc23)NC(=O)[C@H](CCCNC(=N)N)NC(=O)[C@@H](Cc2ccccc2)NC(=O)[C@H](Cc2c[nH]cn2)NC1=O [^177Lu-labeled CCZ01082, metal not drawn]
[1]; 1 h p.i.
  Biodistribution, B16F10 tumour: 13.3 ± 3.34 % ID/g
[1]; 4 h p.i.
  Biodistribution, B16F10 tumour: 20.8 ± 5.37 % ID/g
[1]; 24 h p.i.
  Biodistribution, B16F10 tumour: 7.59 ± 1.70 % ID/g
[1]; 120 h p.i.
  Biodistribution, B16F10 tumour: 0.79 ± 0.39 % ID/g
[2]; male, seminal glands, 1 h p.i., read-out: Biodistribution, Seminal glands
  tissue uptake at 1 h: 0.48 ± 0.13 %ID/g
[2]; male, seminal glands, 4 h p.i., read-out: Biodistribution, Seminal glands
  tissue uptake at 4 h: 0.32 ± 0.15 %ID/g
[2]; male, seminal glands, 24 h p.i., read-out: Biodistribution, Seminal glands
  tissue uptake at 24 h: 0.1 ± 0.04 %ID/g
[2]; male, seminal glands, 120 h p.i., read-out: Biodistribution, Seminal glands
  tissue uptake at 120 h: 0.04 ± 0.02 %ID/g
[2]; male, testes, 1 h p.i., read-out: Biodistribution, Testes
  tissue uptake at 1 h: 1.3 ± 0.4 %ID/g
[2]; male, testes, 4 h p.i., read-out: Biodistribution, Testes
  tissue uptake at 4 h: 0.75 ± 0.26 %ID/g
[2]; male, testes, 24 h p.i., read-out: Biodistribution, Testes
  tissue uptake at 24 h: 0.32 ± 0.17 %ID/g
[2]; male, testes, 120 h p.i., read-out: Biodistribution, Testes
  tissue uptake at 120 h: 0.2 ± 0.11 %ID/g
[2]; adrenal glands, 1 h p.i., read-out: Biodistribution, Adrenal glands
  tissue uptake at 1 h: 2.62 ± 1.48 %ID/g
[2]; adrenal glands, 4 h p.i., read-out: Biodistribution, Adrenal glands
  tissue uptake at 4 h: 1.31 ± 0.56 %ID/g
[2]; adrenal glands, 24 h p.i., read-out: Biodistribution, Adrenal glands
  tissue uptake at 24 h: 0.41 ± 0.35 %ID/g
[2]; adrenal glands, 120 h p.i., read-out: Biodistribution, Adrenal glands
  tissue uptake at 120 h: 0.33 ± 0.23 %ID/g
[2]; blood, 1 h p.i., read-out: Biodistribution, Blood
  tissue uptake at 1 h: 8.32 ± 2.74 %ID/g
[2]; blood, 4 h p.i., read-out: Biodistribution, Blood
  tissue uptake at 4 h: 2.82 ± 1.17 %ID/g
[2]; blood, 24 h p.i., read-out: Biodistribution, Blood
  tissue uptake at 24 h: 0.33 ± 0.57 %ID/g
[2]; blood, 120 h p.i., read-out: Biodistribution, Blood
  tissue uptake at 120 h: 0.03 ± 0.04 %ID/g
[2]; bone, 1 h p.i., read-out: Biodistribution, Bone
  tissue uptake at 1 h: 0.84 ± 0.19 %ID/g
[2]; bone, 4 h p.i., read-out: Biodistribution, Bone
  tissue uptake at 4 h: 0.51 ± 0.11 %ID/g
[2]; bone, 24 h p.i., read-out: Biodistribution, Bone
  tissue uptake at 24 h: 0.31 ± 0.08 %ID/g
[2]; bone, 120 h p.i., read-out: Biodistribution, Bone
  tissue uptake at 120 h: 0.17 ± 0.07 %ID/g
[2]; brain, 1 h p.i., read-out: Biodistribution, Brain
  tissue uptake at 1 h: 0.13 ± 0.03 %ID/g
[2]; brain, 4 h p.i., read-out: Biodistribution, Brain
  tissue uptake at 4 h: 0.06 ± 0.02 %ID/g
[2]; brain, 24 h p.i., read-out: Biodistribution, Brain
  tissue uptake at 24 h: 0.01 ± 0.02 %ID/g
[2]; brain, 120 h p.i., read-out: Biodistribution, Brain
  tissue uptake at 120 h: 0.01 ± 0.01 %ID/g
[2]; fat, 1 h p.i., read-out: Biodistribution, Fat
  tissue uptake at 1 h: 0.61 ± 0.23 %ID/g
[2]; fat, 4 h p.i., read-out: Biodistribution, Fat
  tissue uptake at 4 h: 0.39 ± 0.12 %ID/g
[2]; fat, 24 h p.i., read-out: Biodistribution, Fat
  tissue uptake at 24 h: 0.1 ± 0.13 %ID/g
[2]; fat, 120 h p.i., read-out: Biodistribution, Fat
  tissue uptake at 120 h: 0.05 ± 0.05 %ID/g
[2]; heart, 1 h p.i., read-out: Biodistribution, Heart
  tissue uptake at 1 h: 2.03 ± 0.68 %ID/g
[2]; heart, 4 h p.i., read-out: Biodistribution, Heart
  tissue uptake at 4 h: 0.8 ± 0.32 %ID/g
[2]; heart, 24 h p.i., read-out: Biodistribution, Heart
  tissue uptake at 24 h: 0.18 ± 0.17 %ID/g
[2]; heart, 120 h p.i., read-out: Biodistribution, Heart
  tissue uptake at 120 h: 0.09 ± 0.04 %ID/g
[2]; intestine, 1 h p.i., read-out: Biodistribution, Intestine
  tissue uptake at 1 h: 1.34 ± 0.28 %ID/g
[2]; intestine, 4 h p.i., read-out: Biodistribution, Intestine
  tissue uptake at 4 h: 2.91 ± 4.94 %ID/g
[2]; intestine, 24 h p.i., read-out: Biodistribution, Intestine
  tissue uptake at 24 h: 0.43 ± 0.32 %ID/g
[2]; intestine, 120 h p.i., read-out: Biodistribution, Intestine
  tissue uptake at 120 h: 0.08 ± 0.07 %ID/g
[2]; kidneys, 1 h p.i., read-out: Biodistribution, Kidneys
  tissue uptake at 1 h: 11.7 ± 5.52 %ID/g
[2]; kidneys, 4 h p.i., read-out: Biodistribution, Kidneys
  tissue uptake at 4 h: 11.6 ± 5.03 %ID/g
[2]; kidneys, 24 h p.i., read-out: Biodistribution, Kidneys
  tissue uptake at 24 h: 8.63 ± 6.4 %ID/g
[2]; kidneys, 120 h p.i., read-out: Biodistribution, Kidneys
  tissue uptake at 120 h: 1.98 ± 0.72 %ID/g
[2]; liver, 1 h p.i., read-out: Biodistribution, Liver
  tissue uptake at 1 h: 3.45 ± 0.31 %ID/g
[2]; liver, 4 h p.i., read-out: Biodistribution, Liver
  tissue uptake at 4 h: 3.83 ± 0.28 %ID/g
[2]; liver, 24 h p.i., read-out: Biodistribution, Liver
  tissue uptake at 24 h: 2.41 ± 0.34 %ID/g
[2]; liver, 120 h p.i., read-out: Biodistribution, Liver
  tissue uptake at 120 h: 0.9 ± 0.12 %ID/g
[2]; lungs, 1 h p.i., read-out: Biodistribution, Lungs
  tissue uptake at 1 h: 5.11 ± 2.81 %ID/g
[2]; lungs, 4 h p.i., read-out: Biodistribution, Lungs
  tissue uptake at 4 h: 2.46 ± 0.54 %ID/g
[2]; lungs, 24 h p.i., read-out: Biodistribution, Lungs
  tissue uptake at 24 h: 0.42 ± 0.34 %ID/g
[2]; lungs, 120 h p.i., read-out: Biodistribution, Lungs
  tissue uptake at 120 h: 0.54 ± 0.87 %ID/g
[2]; muscle, 1 h p.i., read-out: Biodistribution, Muscle
  tissue uptake at 1 h: 0.79 ± 0.22 %ID/g
[2]; muscle, 4 h p.i., read-out: Biodistribution, Muscle
  tissue uptake at 4 h: 0.39 ± 0.1 %ID/g
[2]; muscle, 24 h p.i., read-out: Biodistribution, Muscle
  tissue uptake at 24 h: 0.06 ± 0.05 %ID/g
[2]; muscle, 120 h p.i., read-out: Biodistribution, Muscle
  tissue uptake at 120 h: 0.03 ± 0.02 %ID/g
[2]; pancreas, 1 h p.i., read-out: Biodistribution, Pancreas
  tissue uptake at 1 h: 1.14 ± 0.32 %ID/g
[2]; pancreas, 4 h p.i., read-out: Biodistribution, Pancreas
  tissue uptake at 4 h: 0.52 ± 0.27 %ID/g
[2]; pancreas, 24 h p.i., read-out: Biodistribution, Pancreas
  tissue uptake at 24 h: 0.17 ± 0.19 %ID/g
[2]; pancreas, 120 h p.i., read-out: Biodistribution, Pancreas
  tissue uptake at 120 h: 0.09 ± 0.05 %ID/g
[2]; spleen, 1 h p.i., read-out: Biodistribution, Spleen
  tissue uptake at 1 h: 2.1 ± 1.03 %ID/g
[2]; spleen, 4 h p.i., read-out: Biodistribution, Spleen
  tissue uptake at 4 h: 1.46 ± 0.67 %ID/g
[2]; spleen, 24 h p.i., read-out: Biodistribution, Spleen
  tissue uptake at 24 h: 1.05 ± 0.45 %ID/g
[2]; spleen, 120 h p.i., read-out: Biodistribution, Spleen
  tissue uptake at 120 h: 0.65 ± 0.34 %ID/g
[2]; stomach, 1 h p.i., read-out: Biodistribution, Stomach
  tissue uptake at 1 h: 0.89 ± 0.5 %ID/g
[2]; stomach, 4 h p.i., read-out: Biodistribution, Stomach
  tissue uptake at 4 h: 1.65 ± 2.22 %ID/g
[2]; stomach, 24 h p.i., read-out: Biodistribution, Stomach
  tissue uptake at 24 h: 1.17 ± 0.77 %ID/g
[2]; stomach, 120 h p.i., read-out: Biodistribution, Stomach
  tissue uptake at 120 h: 0.19 ± 0.21 %ID/g
[2]; thyroid, 1 h p.i., read-out: Biodistribution, Thyroid
  tissue uptake at 1 h: 3.41 ± 0.51 %ID/g
[2]; thyroid, 4 h p.i., read-out: Biodistribution, Thyroid
  tissue uptake at 4 h: 3.86 ± 0.39 %ID/g
[2]; thyroid, 24 h p.i., read-out: Biodistribution, Thyroid
  tissue uptake at 24 h: 4.03 ± 1.33 %ID/g
[2]; thyroid, 120 h p.i., read-out: Biodistribution, Thyroid
  tissue uptake at 120 h: 0.86 ± 0.31 %ID/g
[2]; tumour/blood, 1 h p.i., read-out: Tumour/blood
  tissue to tissue ratio at 1 h: 1.82 ± 0.82
[2]; tumour/blood, 4 h p.i., read-out: Tumour/blood
  tissue to tissue ratio at 4 h: 8.59 ± 4.19
[2]; tumour/blood, 24 h p.i., read-out: Tumour/blood
  tissue to tissue ratio at 24 h: 87.6 ± 47.8
[2]; tumour/blood, 120 h p.i., read-out: Tumour/blood
  tissue to tissue ratio at 120 h: 52.9 ± 41.3
[2]; tumour/kidney, 1 h p.i., read-out: Tumour/kidney
  tissue to tissue ratio at 1 h: 1.41 ± 0.71
[2]; tumour/kidney, 4 h p.i., read-out: Tumour/kidney
  tissue to tissue ratio at 4 h: 2.05 ± 0.86
[2]; tumour/kidney, 24 h p.i., read-out: Tumour/kidney
  tissue to tissue ratio at 24 h: 1.14 ± 0.5
[2]; tumour/kidney, 120 h p.i., read-out: Tumour/kidney
  tissue to tissue ratio at 120 h: 0.42 ± 0.18
[2]; tumour/muscle, 1 h p.i., read-out: Tumour/muscle
  tissue to tissue ratio at 1 h: 18.7 ± 8.13
[2]; tumour/muscle, 4 h p.i., read-out: Tumour/muscle
  tissue to tissue ratio at 4 h: 57.7 ± 22.4
[2]; tumour/muscle, 24 h p.i., read-out: Tumour/muscle
  tissue to tissue ratio at 24 h: 167 ± 88.7
[2]; tumour/muscle, 120 h p.i., read-out: Tumour/muscle
  tissue to tissue ratio at 120 h: 38.9 ± 24
[2]; urine, 1 h p.i.
  excreta dose per gram or mL at 1 h: 87.9 ± 48.2 %ID/g
[2]; urine, 4 h p.i.
  excreta dose per gram or mL at 4 h: 113 ± 29.4 %ID/g
[2]; urine, 24 h p.i.
  excreta dose per gram or mL at 24 h: 6.11 ± 1.66 %ID/g
[2]; urine, 120 h p.i.
  excreta dose per gram or mL at 120 h: 1.21 ± 0.21 %ID/g
